{"source": "patent US8431556B2", "about": "“C-21-keto lupane derivatives preparation and use thereof” (Vertex Pharmaceuticals Incorporated, priority 2008, dated 2013)", "system": "HIV-1 (HIVIIIB)", "test": "HIV-1 replication in MT2 cell line with and without 30% human serum (viral RT activity in supernatant)", "assay_type": "cell-based", "conditions": "Human immunodeficiency virus 1, MT2, MT-2 cells, average IC50 if tested more than once", "procedure,_shortened": "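MT2 cells infected with HIVIIIB at MOI 0.5 for 3 h, washed, then cultured with serially diluted compound in RPMI/10% FBS, with or without 30% human serum, at 37° C. Compound-containing medium refreshed at day 3. Replication measured as supernatant RT activity at day 5; IC50 and IC90 from curve fits.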", "key": {"[1]": {"conditions": "with 30% human serum, read-out: MT-2 (HIVIIIB) with 30% HS IC50 range"}, "[2]": {"conditions": "without HS, read-out: MT-2 (HIVIIIB) IC50 range"}}, "note": "Like-named read-outs stand apart in the source and are kept apart here.", "data": [{"smiles": "CC(C)C1=C2[C@H]3CC[C@@H]4[C@@]5(C)CC[C@H](OC(=O)CC(C)(C)C(=O)O)C(C)(C)[C@@H]5CC[C@@]4(C)[C@]3(C)CC[C@@]2(C(=O)Nc2cncnc2)CC1=O", "note": "[9-51, 3β-O-(3′,3′-Dimethylsuccinyl)-21-oxolup-18-en-28-oic acid N-pyrimidin-5-yl-acetamide]", "values": [{"measurement": "IC50", "setting": "[1]", "result": "< 199", "unit": "nM"}]}, {"smiles": "Cc1cccc(NC(=O)[C@@]23CC[C@]4(C)[C@H](CC[C@@H]5[C@@]6(C)CC[C@H](OC(=O)CC(C)(C)C(=O)O)C(C)(C)[C@@H]6CC[C@]54C)C2=C(C(C)C)C(=O)C3)c1", "note": "[9-48, 3β-O-(3′,3′-Dimethylsuccinyl)-21-oxolup-18-en-28-oic acid N-3-methyl-phen-1-yl acetamide]", "values": [{"measurement": "IC50", "setting": "[1]", "result": "< 199", "unit": "nM"}]}, {"smiles": "Cc1ccc(NC(=O)[C@@]23CC[C@]4(C)[C@H](CC[C@@H]5[C@@]6(C)CC[C@H](OC(=O)CC(C)(C)C(=O)O)C(C)(C)[C@@H]6CC[C@]54C)C2=C(C(C)C)C(=O)C3)cc1", "note": "[9-49, 3β-O-(3′,3′-Dimethylsuccinyl)-21-oxolup-18-en-28-oic acid N-4-methyl-phen-1-yl acetamide]", "values": [{"measurement": "IC50", "setting": "[1]", "result": "< 199", "unit": "nM"}]}, {"smiles": "CC(C)C1=C2[C@H]3CC[C@@H]4[C@@]5(C)CC[C@H](OC(=O)CC(C)(C)C(=O)O)C(C)(C)[C@@H]5CC[C@@]4(C)[C@]3(C)CC[C@@]2(C(=O)Nc2ccn(C)n2)CC1=O", "note": "[9-53, 3β-O-(3′,3′-Dimethylsuccinyl)-21-oxolup-18-en-28-oic acid N-3-amino-1-methyl-1H-pyrazole-acetamide]", "values": [{"measurement": "IC50", "setting": "[1]", "result": "< 199", "unit": "nM"}]}, {"smiles": "CC(C)C1=C2[C@H]3CC[C@@H]4[C@@]5(C)CC[C@H](OC(=O)CC(C)(C)C(=O)O)C(C)(C)[C@@H]5CC[C@@]4(C)[C@]3(C)CC[C@@]2(C(=O)NCc2ccc(Cl)cc2)CC1=O", "note": "[9-14, 3β-O-(3′,3′-Dimethylsuccinyl)-21-oxolup-18-en-28-oic acid N-4-chloro-benzylamide]", "values": [{"measurement": "IC50", "setting": "[1]", "result": "< 199", "unit": "nM"}]}, {"smiles": "CC(C)C1=C2[C@H]3CC[C@@H]4[C@@]5(C)CC[C@H](OC(=O)CC(C)(C)C(=O)O)C(C)(C)[C@@H]5CC[C@@]4(C)[C@]3(C)CC[C@@]2(C(=O)NC(C)(C)c2ccccc2)CC1=O", "note": "[9-34, 3β-O-(3′,3′-Dimethylsuccinyl)-21-oxolup-18-en-28-oic acid N-(1-methyl-1-phenyl-ethyl)-acetamide]", "values": [{"measurement": "IC50", "setting": "[1]", "result": "< 199", "unit": "nM"}]}, {"smiles": "CC(C)C1=C2[C@H]3CC[C@@H]4[C@@]5(C)CC[C@H](OC(=O)CC(C)(C)C(=O)O)C(C)(C)[C@@H]5CC[C@@]4(C)[C@]3(C)CC[C@@]2(C(=O)NCC2CCCCC2)CC1=O", "note": "[9-5, 3β-O-(3′,3′-Dimethylsuccinyl)-21-oxolup-18-en-28-oic acid N-cyclohexyl methylamide]", "values": [{"measurement": "IC50", "setting": "[2]", "result": "< 199", "unit": "nM"}]}, {"smiles": "CC(C)C1=C2[C@H]3CC[C@@H]4[C@@]5(C)CC[C@H](OC(=O)CC(C)(C)C(=O)O)C(C)(C)[C@@H]5CC[C@@]4(C)[C@]3(C)CC[C@@]2(C(=O)NCc2ccncc2)CC1=O", "note": "[9-18, 3β-O-(3′,3′-Dimethylsuccinyl)-21-oxolup-18-en-28-oic acid N-pyridin-4-ylmethylamide]", "values": [{"measurement": "IC50", "setting": "[1]", "result": "< 199", "unit": "nM"}]}, {"smiles": "CC(C)C1=C2[C@H]3CC[C@@H]4[C@@]5(C)CC[C@H](OC(=O)CC(C)(C)C(=O)O)C(C)(C)[C@@H]5CC[C@@]4(C)[C@]3(C)CC[C@@]2(C(=O)Nc2nnnn2C)CC1=O", "note": "[9-66, 3β-O-(3′,3′-Dimethylsuccinyl)-21-oxolup-18-en-28-oic acid N-(1-methyl-1H-tetrazol-5-yl)-acetamide]", "values": [{"measurement": "IC50", "setting": "[1]", "result": "200 to 999", "unit": "nM"}]}, {"smiles": "CC(C)C1=C2[C@H]3CC[C@@H]4[C@@]5(C)CC[C@H](OC(=O)CC(C)(C)C(=O)O)C(C)(C)[C@@H]5CC[C@@]4(C)[C@]3(C)CC[C@@]2(C(=O)NCCN)CC1=O", "note": "[9-21, 3β-O-(3′,3′-Dimethylsuccinyl)-21-oxolup-18-en-28-oic acid N-(2-amino-ethyl)-acetamide]", "values": [{"measurement": "IC50", "setting": "[1]", "result": "< 199", "unit": "nM"}]}, {"smiles": "COC(=O)NC1CCN(C(=O)[C@@]23CC[C@]4(C)[C@H](CC[C@@H]5[C@@]6(C)CC[C@H](OC(=O)CC(C)(C)C(=O)O)C(C)(C)[C@@H]6CC[C@]54C)C2=C(C(C)C)C(=O)C3)CC1", "note": "[9-45, 3β-O-(3′,3′-Dimethylsuccinyl)-21-oxolup-18-en-28-oic acid N-(4-aminocarboxylic acid methyl ester-1-piperidine)-acetamide]", "values": [{"measurement": "IC50", "setting": "[1]", "result": "< 199", "unit": "nM"}]}, {"smiles": "CC(C)C1=C2[C@H]3CC[C@@H]4[C@@]5(C)CC[C@H](OC(=O)CC(C)(C)C(=O)O)C(C)(C)[C@@H]5CC[C@@]4(C)[C@]3(C)CC[C@@]2(C(=O)Nc2ccnn2C)CC1=O", "note": "[9-54, 3β-O-(3′,3′-Dimethylsuccinyl)-21-oxolup-18-en-28-oic acid N-5-amino-1-methyl-1H-pyrazole acetamide]", "values": [{"measurement": "IC50", "setting": "[1]", "result": "< 199", "unit": "nM"}]}, {"smiles": "CC(C)C1=C2[C@H]3CC[C@@H]4[C@@]5(C)CC[C@H](OC(=O)CC(C)(C)C(=O)O)C(C)(C)[C@@H]5CC[C@@]4(C)[C@]3(C)CC[C@@]2(C(=O)NCc2cccnc2)CC1=O", "note": "[9-17, 3β-O-(3′,3′-Dimethylsuccinyl)-21-oxolup-18-en-28-oic acid N-pyridin-3-ylmethylamide]", "values": [{"measurement": "IC50", "setting": "[1]", "result": "< 199", "unit": "nM"}]}, {"smiles": "CC(=O)NCCNC(=O)[C@@]12CC[C@]3(C)[C@H](CC[C@@H]4[C@@]5(C)CC[C@H](OC(=O)CC(C)(C)C(=O)O)C(C)(C)[C@@H]5CC[C@]43C)C1=C(C(C)C)C(=O)C2", "note": "[9-22, 3β-O-(3′,3′-Dimethylsuccinyl)-21-oxolup-18-en-28-oic acid N-(2-acetylamino-ethyl)-acetamide]", "values": [{"measurement": "IC50", "setting": "[1]", "result": "< 199", "unit": "nM"}]}, {"smiles": "CC(C)C1=C2[C@H]3CC[C@@H]4[C@@]5(C)CC[C@H](OC(=O)CC(C)(C)C(=O)O)C(C)(C)[C@@H]5CC[C@@]4(C)[C@]3(C)CC[C@@]2(C(=O)N2CCN(C(=O)OC(C)(C)C)CC2)CC1=O", "note": "[9-27, 3β-O-(3′,3′-Dimethylsuccinyl)-21-oxolup-18-en-28-oic acid N-1-acetyl-piperazine-4-carboxylic acid tert-butyl ester]", "values": [{"measurement": "IC50", "setting": "[1]", "result": "< 199", "unit": "nM"}]}, {"smiles": "CC(C)C1=C2[C@H]3CC[C@@H]4[C@@]5(C)CC[C@H](OC(=O)CC(C)(C)C(=O)O)C(C)(C)[C@@H]5CC[C@@]4(C)[C@]3(C)CC[C@@]2(C(=O)Nc2cncc3ccccc23)CC1=O", "note": "[9-63, 3β-O-(3′,3′-Dimethylsuccinyl)-21-oxolup-18-en-28-oic acid N-isoquinolin-4-yl-acetamide]", "values": [{"measurement": "IC50", "setting": "[1]", "result": "< 199", "unit": "nM"}]}, {"smiles": "CC(C)C1=C2[C@H]3CC[C@@H]4[C@@]5(C)CC[C@H](OC(=O)CC(C)(C)C(=O)O)C(C)(C)[C@@H]5CC[C@@]4(C)[C@]3(C)CC[C@@]2(C(=O)NC2CCC(F)(F)CC2)CC1=O", "note": "[9-85, 3β-O-(3′,3′-Dimethylsuccinyl)-21-oxolup-18-en-28-oic acid N-(4,4-difluoro-cyclohexyl) acetamide]", "values": [{"measurement": "IC50", "setting": "[1]", "result": "< 199", "unit": "nM"}]}, {"smiles": "CC(C)C1=C2[C@H]3CC[C@@H]4[C@@]5(C)CC[C@H](OC(=O)CC(C)(C)C(=O)O)C(C)(C)[C@@H]5CC[C@@]4(C)[C@]3(C)CC[C@@]2(C(=O)Nc2ccccn2)CC1=O", "note": "[9-25, 3β-O-(3′,3′-Dimethylsuccinyl)-21-oxolup-18-en-28-oic acid N-pyridin-2-yl-acetamide]", "values": [{"measurement": "IC50", "setting": "[1]", "result": "< 199", "unit": "nM"}]}, {"smiles": "CC(C)C1=C2[C@H]3CC[C@@H]4[C@@]5(C)CC[C@H](OC(=O)CC(C)(C)C(=O)O)C(C)(C)[C@@H]5CC[C@@]4(C)[C@]3(C)CC[C@@]2(C(=O)NCCNC(=O)OC(C)(C)C)CC1=O", "note": "[9-20, 3β-O-(3′,3′-Dimethylsuccinyl)-21-oxolup-18-en-28-oic acid N-(2-acetylamino-ethyl)-carbamic acid tert-butyl ester]", "values": [{"measurement": "IC50", "setting": "[1]", "result": "< 199", "unit": "nM"}]}, {"smiles": "CC(C)C1=C2[C@H]3CC[C@@H]4[C@@]5(C)CC[C@H](OC(=O)CC(C)(C)C(=O)O)C(C)(C)[C@@H]5CC[C@@]4(C)[C@]3(C)CC[C@@]2(C(=O)NCc2cccc(Cl)c2)CC1=O", "note": "[9-13, 3β-O-(3′,3′-Dimethylsuccinyl)-21-oxolup-18-en-28-oic acid N-3-chloro-benzylamide]", "values": [{"measurement": "IC50", "setting": "[2]", "result": "< 199", "unit": "nM"}]}, {"smiles": "CC(C)C1=C2[C@H]3CC[C@@H]4[C@@]5(C)CC[C@H](OC(=O)CC(C)(C)C(=O)O)C(C)(C)[C@@H]5CC[C@@]4(C)[C@]3(C)CC[C@@]2(C(=O)NC(C)c2ccccc2)CC1=O", "note": "(stereo partly drawn) [9-33, 3β-O-(3′,3′-Dimethylsuccinyl)-21-oxolup-18-en-28-oic acid N-(1-phenyl-ethyl)-acetamide]", "values": [{"measurement": "IC50", "setting": "[1]", "result": "< 199", "unit": "nM"}]}, {"smiles": "CC(C)C1=C2C3CCC4[C@@]5(C)CC[C@H](OC(=O)CC(C)(C)C(=O)O)C(C)(C)C5CC[C@@]4(C)[C@]3(C)CC[C@@]2(C(=O)NC[C@@H]2CCCN2C(=O)OC(C)(C)C)CC1=O", "note": "(stereo partly drawn) [9-80, 3β-O-(3′,3′-Dimethylsuccinyl)-21-oxolup-18-en-28-oic acid N-(S)-2-acetylaminomethyl-pyrrolidine-1-carboxylic acid tert-butyl ester]", "values": [{"measurement": "IC50", "setting": "[1]", "result": "< 199", "unit": "nM"}]}, {"smiles": "CC(C)C1=C2[C@H]3CC[C@@H]4[C@@]5(C)CC[C@H](OC(=O)CC(C)(C)C(=O)O)C(C)(C)[C@@H]5CC[C@@]4(C)[C@]3(C)CC[C@@]2(C(=O)NCc2ccccn2)CC1=O", "note": "[9-16, 3β-O-(3′,3′-Dimethylsuccinyl)-21-oxolup-18-en-28-oic acid N-pyridin-2-ylmethylamide]", "values": [{"measurement": "IC50", "setting": "[1]", "result": "< 199", "unit": "nM"}]}, {"smiles": "CC(C)C1=C2[C@H]3CC[C@@H]4[C@@]5(C)CC[C@H](OC(=O)CC(C)(C)C(=O)O)C(C)(C)[C@@H]5CC[C@@]4(C)[C@]3(C)CC[C@@]2(C(=O)N2CCN(C)C(=O)C2)CC1=O", "note": "[9-46, 3β-O-(3′,3′-Dimethylsuccinyl)-21-oxolup-18-en-28-oic acid N-4-(1-methyl-piperazi-2-one)-acetamide]", "values": [{"measurement": "IC50", "setting": "[1]", "result": "< 199", "unit": "nM"}]}]}
